We go through three compounds from patent US5284774A (priority 1991, dated 1994).

One series relates to murine CFU-C. As to conditions: for CC90: mouse, bone marrow cfu-c, 0.75 h.
The next series deals with T1, System L (Mus musculus, UniProt Q9Z127).
T1 construct: Murine L1210 Leukemia cells were grown in RPMI 1630 medium; endogenous in cells; host or cells: murine L1210 leukemia cells
The series is classed as cell-based, murine.

For series [1], the system named is murine L1210 leukemia cells. The series is classed as cell-based. Particulars: for IC90: l1210 cells, 45 min, read-out: LD90, murine L1210 leukemia cells (antitumor activity).
For series [2] the following is noted: dulbecco's phosphate buffered saline.
Where [3] appears, read: read-out: KI, inhibition of initial rate of transport of BCH.
[4] abbreviates: read-out: Ki, competitive inhibition of BCH transport.

“And” between values parts separate entries of the source, which are not always exact repeats. Equal entries are not always repeated. “Also recorded” adds a separate entry of the source. Where two headings read alike, the source gives them in different places.

T1 sequence (Q9Z127 whole entry): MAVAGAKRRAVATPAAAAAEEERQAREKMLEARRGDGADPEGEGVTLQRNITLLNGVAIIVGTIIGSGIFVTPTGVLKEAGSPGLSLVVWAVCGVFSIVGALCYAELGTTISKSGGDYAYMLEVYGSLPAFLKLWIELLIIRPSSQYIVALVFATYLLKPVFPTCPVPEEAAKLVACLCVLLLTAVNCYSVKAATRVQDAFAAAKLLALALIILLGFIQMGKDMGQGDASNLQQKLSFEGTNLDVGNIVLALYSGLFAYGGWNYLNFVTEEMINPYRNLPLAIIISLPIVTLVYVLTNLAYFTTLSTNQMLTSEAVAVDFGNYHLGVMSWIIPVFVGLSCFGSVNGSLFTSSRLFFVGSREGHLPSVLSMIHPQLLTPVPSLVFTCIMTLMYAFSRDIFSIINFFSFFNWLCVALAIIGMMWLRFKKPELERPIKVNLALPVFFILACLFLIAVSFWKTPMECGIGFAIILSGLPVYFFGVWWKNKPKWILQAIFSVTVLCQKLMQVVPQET
T1 sequence (P10852 whole entry partner): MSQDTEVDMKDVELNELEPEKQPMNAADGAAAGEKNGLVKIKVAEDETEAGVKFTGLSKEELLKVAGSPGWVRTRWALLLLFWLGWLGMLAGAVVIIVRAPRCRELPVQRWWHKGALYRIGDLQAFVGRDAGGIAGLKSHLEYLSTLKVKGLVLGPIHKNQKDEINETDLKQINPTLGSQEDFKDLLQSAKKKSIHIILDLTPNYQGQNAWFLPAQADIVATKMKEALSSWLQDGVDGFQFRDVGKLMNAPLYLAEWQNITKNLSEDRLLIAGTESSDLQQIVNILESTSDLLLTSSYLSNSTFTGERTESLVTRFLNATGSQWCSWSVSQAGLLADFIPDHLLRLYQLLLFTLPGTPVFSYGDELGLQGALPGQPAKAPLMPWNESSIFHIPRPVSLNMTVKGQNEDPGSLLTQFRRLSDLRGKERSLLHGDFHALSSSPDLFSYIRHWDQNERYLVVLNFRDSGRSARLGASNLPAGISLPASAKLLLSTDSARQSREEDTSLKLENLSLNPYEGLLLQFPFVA

For `NC1(C(=O)O)CCc2ccc(N(CCCl)CCCl)cc2C1` (racemic) [Compound 6, DL-2-Amino-7-bis(2-chloroethyl)amino-1,2,3,4-tetrahydro-2-naphthoic acid], in the series on murine CFU-C, the “myelosuppressive activity (in words)” value was “reduced myelosuppressive activity” and the CC90 was determined as 23.8 µM. At System L, the “KI lower / affinity for System L greater than that of L-phenylalanine mustard” value was 500 fold, the “inhibition of System L (in words)” value is given as “extremely potent competitive inhibitor; also recorded: most potent inhibitor of System L”, the “more effective inhibitor of System L than BCH” value is given as 25-50 fold and the “more potent than 2-amino-1,2,3,4-tetrahydro-2-naphthoic acid” value is “approximately 40 fold”. At System L (setting [3]), the inhibition constant (Ki) – broadly, the dissociation constant of the complex between target and ligand, obtained from inhibition or displacement – was around 0.2 µM. In addition, at System L (setting [4]), the Ki was 0.22 µM. In addition, in series [1], the “antitumor activity (in words)” value is listed as “enhanced antitumor activity”; the “improvement in therapeutic index” value was 2-2.5 fold and 2 fold; the IC90 was 26.5 µM. The “half life (t1/2)” value in series [2] is recorded as “approximately 40 minutes”.
Regarding `NC1(C(=O)O)CCc2c(cccc2N(CCCl)CCCl)C1` (racemic) [Compound 7, DL-2-Amino-5-bis-(2-chloroethyl) amino-1,2,3,4-tetrahydro-2-naphthoic acid], the “inhibition of System L (in words)” value on System L was “weaker inhibitor”. Further, the inhibitory constant (Ki) at System L (setting [3]) came out at 15.2 µM.
In the series on murine CFU-C, “L-phenylalanine mustard [L-PAM, reference compound]” showed a CC90 of 14 µM. Also, at System L (setting [4]), the Ki is 112 µM. Besides, in series [1], the IC90 is 35 µM.
